Measurements reported in patent US20250040539A1, “COMPOSITION COMPRISING AN ANTIMICROBIAL AGENT AND A CARBOXAMIDE” (BASF SE, priority 2021, published 2025).

Tested on: fungal mix: Aspergillus brasiliensis DSM 1988, Rhodotorula mucilaginosa DSM 13621, Yarrowia lipolytica DSM 8218
Assay: Preservative activity in a manual dishwashing composition (MDW, pH 7.1) with 1.0% 2-phenoxyethanol against fungal mix (Example 1.2)
Assay type: cell-based
Conditions: MDW + 1.0% PE, no amide (Comparative)
Method: A manual dish wash detergent (MDW) of pH 7.1 containing the following components was used:
The samples were contaminated with a fungal mix consisting of: • Aspergillus brasiliensis DSM 1988 • Rhodotorula mucilaginosa DSM 13621 • Yarrowia lipolytica DSM 8218
The samples were inoculated with the fungal mix at day 0 and 7 to obtain 1-3×10E+05 CFU/ml inoculation in the test sample consisting of the above-defined dish wash detergent MDW and stored at 25° C. for 21 days. CFU was determined before re-inoculation at day 7, and on days 14 and 21.
Any CFU value at d7, d14 or d21 obtained with a MDW sample of the invention containing 2-phenoxyethanol and amide (MDW+1.0% PE+x % of Amide) lower than the respective value of the comparative example (MDW+1.0% by weight of 2-phenoxyethanol) indicates a better performance of the inventive combination of 2-phenoxyethanol with the amide.

SMILES: OCCOc1ccccc1 [PE, 2-phenoxyethanol, reference compound]
- d7 [CFU/ml] (day 7): 38,000 CFU/ml
- d14 [CFU/ml] (day 14): 27,000 CFU/ml
- d21 [CFU/ml] (day 21): 3,700 CFU/ml
